Assay results: patent US11548871B2, “Triazole carbamate pyridyl sulfonamides as LPA receptor antagonists and uses thereof” (Gilead Sciences, Inc., priority 2019, dated 2023)

Target: human LPAR1 (Homo sapiens, UniProt Q92633)
Assay: LPAR1 intracellular calcium mobilization assay (antagonist mode)
Procedure: In vitro LPAR1 activity was measured in an intracellular calcium mobilization assay.
Prior to testing cell media were aspirated from the cells and replaced with 20 μL Calcium Dye Loading Buffer (DiscoverX Calcium NoWash^PLUS Assay Kit cat #90-0091) and 2.5 mM Probenecid (Sigma Aldrich cat #P8761, prepared fresh) in HBSS/20 mM Hepes for 60 min at 37° C.
For agonist dose curves, cells were removed from the incubator after dye loading and 10 μL HBSS/20 mM Hepes including 3× vehicle was added. Cells were incubated for 30 min at room temperature in the dark to equilibrate plate temperatures. An intermediate LPA dilution series was prepared in assay buffer to generate 4× stock. Calcium mobilization was monitored on a FLIPR Tetra (MDS, San Jose, Calif.) for 2 min and 10 μL 4×LPA in HBSS/20 mM Hepes was added to the cells 5 s into the assay.
An intermediate antagonist dilution series was prepared as 3× samples in assay buffer. After dye loading, cells were removed from the incubator and 10 μL 3× antagonist was added. Cells were incubated for 30 min at room temperature in the dark to equilibrate plate temperatures. The final vehicle (DMSO) concentration was 1%. Compound antagonist activities was measured on a FLIPR Tetra. Calcium mobilization was monitored for 2 min and 10 μL EC80 agonist in HBSS/20 mM Hepes was added to the cells 5 s into the assay. Compound activity was analyzed using CBIS data analysis suite (ChemInnovation Software, San Diego, Calif.).

human LPAR1, sequence (Q92633 whole entry): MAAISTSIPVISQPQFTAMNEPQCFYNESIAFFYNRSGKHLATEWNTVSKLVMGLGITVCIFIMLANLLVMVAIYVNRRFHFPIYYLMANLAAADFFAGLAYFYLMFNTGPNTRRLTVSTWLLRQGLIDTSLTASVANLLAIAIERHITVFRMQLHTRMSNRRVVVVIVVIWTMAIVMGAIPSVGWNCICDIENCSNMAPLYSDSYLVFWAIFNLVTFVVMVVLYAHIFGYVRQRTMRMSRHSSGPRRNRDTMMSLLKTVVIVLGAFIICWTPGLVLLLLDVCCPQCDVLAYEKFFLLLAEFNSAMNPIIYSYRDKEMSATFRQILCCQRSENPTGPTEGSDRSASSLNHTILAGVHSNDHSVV

Structure (SMILES)	EC50 [nM]
C[C@@H](OC(=O)Nc1c(-c2ccc(NS(C)(=O)=O)cn2)nnn1C)c1ccccc1Cl [Compound 10, (R)-1-(2-chlorophenyl)ethyl (1-methyl-4-(5-(methylsulfonamido)pyridin-2-yl)-1H-1,2,3-triazol-5-yl)carbamate]	37.4
Cc1nc(-c2nnn(C)c2NC(=O)OCc2cccc(Cl)c2)ccc1NS(C)(=O)=O [Compound 39, 3-chlorobenzyl (1-methyl-4-(6-methyl-5-(methylsulfonamido)pyridin-2-yl)-1H-1,2,3-triazol-5-yl)carbamate]	89.5
Cc1nc(-c2nnn(C)c2NC(=O)O[C@H](CC#N)c2ccccc2)ccc1NS(C)(=O)=O [Compound 50, (R)-2-cyano-1-phenylethyl (1-methyl-4-(6-methyl-5-(methylsulfonamido)pyridin-2-yl)-1H-1,2,3-triazol-5-yl)carbamate]	730
Cc1nc(-c2nnn(C)c2NC(=O)O[C@H](C)c2cc(Cl)ccc2Cl)ccc1NS(C)(=O)=O [Compound 61, (R)-1-(2,5-dichlorophenyl)ethyl (1-methyl-4-(6-methyl-5-(methylsulfonamido)pyridin-2-yl)-1H-1,2,3-triazol-5-yl)carbamate]	30
Cc1nc(-c2nnn(C)c2NC(=O)OCCCC(C)(C)C)ccc1NS(C)(=O)=O [Compound 30, 4,4-dimethylpentyl (1-methyl-4-(6-methyl-5-(methylsulfonamido)pyridin-2-yl)-1H-1,2,3-triazol-5-yl)carbamate]	667
C[C@@H](OC(=O)Nc1c(-c2ccc(NS(C)(=O)=O)cn2)nnn1C)c1cc(F)ccc1F [Compound 17, (R)-1-(2,5-difluorophenyl)ethyl (1-methyl-4-(5-(methylsulfonamido)pyridin-2-yl)-1H-1,2,3-triazol-5-yl)carbamate]	5
Cc1nc(-c2nnn(C)c2NC(=O)OCCC(C)C)ccc1NS(C)(=O)=O [Compound 33, isopentyl (1-methyl-4-(6-methyl-5-(methylsulfonamido)pyridin-2-yl)-1H-1,2,3-triazol-5-yl)carbamate]	3680
Cc1nc(-c2nnn(C)c2NC(=O)OCc2cc(F)ccc2Cl)ccc1NS(C)(=O)=O [Compound 38, 2-chloro-5-fluorobenzyl (1-methyl-4-(6-methyl-5-(methylsulfonamido)pyridin-2-yl)-1H-1,2,3-triazol-5-yl)carbamate]	167
Cc1nc(-c2nnn(C)c2NC(=O)O[C@H](C)c2cc(F)cnc2Cl)ccc1NS(C)(=O)=O [Compound 74, (R)-1-(2-chloro-5-fluoropyridin-3-yl)ethyl (1-methyl-4-(6-methyl-5-(methylsulfonamido)pyridin-2-yl)-1H-1,2,3-triazol-5-yl)carbamate]	110
Cc1nc(-c2nnn(C)c2NC(=O)O[C@H](CF)c2ccccc2F)ccc1NS(C)(=O)=O [Compound 44, (S)-2-fluoro-1-(2-fluorophenyl)ethyl (1-methyl-4-(6-methyl-5-(methylsulfonamido)pyridin-2-yl)-1H-1,2,3-triazol-5-yl)carbamate]	50
C[C@@H](OC(=O)Nc1c(-c2ccc(NS(C)(=O)=O)c(F)n2)nnn1C)c1ccccc1 [Compound 3, (R)-1-phenylethyl (4-(6-fluoro-5-(methylsulfonamido)pyridin-2-yl)-1-methyl-1H-1,2,3-triazol-5-yl)carbamate]	166
C[C@@H](OC(=O)Nc1c(-c2ccc(NS(C)(=O)=O)cn2)nnn1C)c1cccnc1Cl [Compound 23, (R)-1-(2-chloropyridin-3-yl)ethyl (1-methyl-4-(5-(methylsulfonamido)pyridin-2-yl)-1H-1,2,3-triazol-5-yl)carbamate]	36
Cc1cccc(COC(=O)Nc2c(-c3ccc(NS(C)(=O)=O)cn3)nnn2C)c1 [Compound 19, 3-methylbenzyl (1-methyl-4-(5-(methylsulfonamido)pyridin-2-yl)-1H-1,2,3-triazol-5-yl)carbamate]	284
Cn1nnc(-c2ccc(NS(C)(=O)=O)c(F)n2)c1NC(=O)O[C@@H](c1ccccc1)C(F)F [Compound 6, (S)-2,2-difluoro-1-phenylethyl (4-(6-fluoro-5-(methylsulfonamido)pyridin-2-yl)-1-methyl-1H-1,2,3-triazol-5-yl)carbamate]	71.3
Cc1nc(-c2nnn(C)c2NC(=O)N[C@H](C)c2ccccc2)ccc1NS(C)(=O)=O [Compound 64]	2740
Cc1nc(-c2nnn(C)c2NC(=O)O[C@H](C)c2cccnc2)ccc1NS(C)(=O)=O [Compound 67, (R)-1-(pyridin-3-yl)ethyl (1-methyl-4-(6-methyl-5-(methylsulfonamido)pyridin-2-yl)-1H-1,2,3-triazol-5-yl)carbamate]	1630
COCC(OC(=O)Nc1c(-c2ccc(NS(C)(=O)=O)c(C)n2)nnn1C)c1ccccc1 (stereo not drawn) [Compound 34, 2-methoxy-1-phenylethyl (1-methyl-4-(6-methyl-5-(methylsulfonamido)pyridin-2-yl)-1H-1,2,3-triazol-5-yl)carbamate]	469
Cc1nc(-c2nnn(C)c2NC(=O)O[C@@H](c2ccccc2F)C(F)F)ccc1NS(C)(=O)=O [Compound 54, (S)-2,2-difluoro-1-(2-fluorophenyl)ethyl (1-methyl-4-(6-methyl-5-(methylsulfonamido)pyridin-2-yl)-1H-1,2,3-triazol-5-yl)carbamate]	90.6

Next, values leading:

EC50 [nM]	Structure (SMILES)
1050	C[C@@H](OC(=O)Nc1c(-c2ccc(NS(C)(=O)=O)c(C(F)F)n2)nnn1C)c1ccccc1 [Compound 150, (R)-1-phenylethyl (4-(6-(difluoromethyl)-5-(methylsulfonamido)pyridin-2-yl)-1-methyl-1H-1,2,3-triazol-5-yl)carbamate]
1130	Cc1nc(-c2nnn(C)c2NC(=O)OC(C)c2ccncc2F)ccc1NS(C)(=O)=O (stereo not drawn) [Compound 132, 1-(3-fluoropyridin-4-yl)ethyl (1-methyl-4-(6-methyl-5-(methylsulfonamido)pyridin-2-yl)-1H-1,2,3-triazol-5-yl)carbamate]
193	Cc1nc(-c2nnn(C)c2NC(=O)OC(C)c2cc(Cl)cnc2Cl)ccc1NS(C)(=O)=O (stereo not drawn) [Compound 84, 1-(2,5-dichloropyridin-3-yl)ethyl (1-methyl-4-(6-methyl-5-(methylsulfonamido)pyridin-2-yl)-1H-1,2,3-triazol-5-yl)carbamate]
493	Cc1nc(-c2nnn(C)c2NC(=O)OC(c2cccnc2Cl)C(F)F)ccc1NS(C)(=O)=O (stereo not drawn) [Compound 137, 1-(2-chloropyridin-3-yl)-2,2-difluoroethyl (1-methyl-4-(6-methyl-5-(methylsulfonamido)pyridin-2-yl)-1H-1,2,3-triazol-5-yl)carbamate]
267	CC(C)NS(=O)(=O)Nc1ccc(-c2nnn(C)c2NC(=O)O[C@H](C)c2cccnc2Cl)nc1 [Compound 160, (R)-1-(2-chloropyridin-3-yl)ethyl (4-(5-((N-isopropylsulfamoyl)amino)pyridin-2-yl)-1-methyl-1H-1,2,3-triazol-5-yl)carbamate]
208	CNS(=O)(=O)Nc1ccc(-c2nnn(C)c2NC(=O)O[C@H](C)c2cccnc2Cl)nc1C [Compound 163, (R)-1-(2-chloropyridin-3-yl)ethyl (1-methyl-4-(6-methyl-5-((N-methylsulfamoyl)amino)pyridin-2-yl)-1H-1,2,3-triazol-5-yl)carbamate]
162	Cc1nc(-c2nnn(C)c2NC(=O)O[C@H](CF)c2ccccc2)c(F)cc1NS(C)(=O)=O [Compound 156, (S)-2-fluoro-1-phenylethyl (4-(3-fluoro-6-methyl-5-(methylsulfonamido)pyridin-2-yl)-1-methyl-1H-1,2,3-triazol-5-yl)carbamate]
278	Cc1nc(-c2nnn(C)c2NC(=O)O[C@H](C)c2cccc(F)c2)ccc1NS(=O)(=O)C(C)C [Compound 105, (R)-1-(3-fluoro-phenyl)ethyl(1-methyl-4-(6-methyl-5-((1-methylethyl)sulfonamido)pyridin-2-yl)-1H-1,2,3-triazol-5-yl)carbamate]
28.4	C[C@@H](OC(=O)Nc1c(-c2ccc(NS(C)(=O)=O)cn2)nnn1C)c1cccc(F)c1 [Compound 95, (R)-1-(3-fluorophenyl)ethyl(1-methyl-4-(5-(methylsulfonamido)pyridin-2-yl)-1H-1,2,3-triazol-5-yl)carbamate]
313	Cc1nc(-c2nnn(C)c2NC(=O)O[C@H](C)c2cccc(F)c2)ccc1NS(=O)(=O)C1CC1 [Compound 106, (R)-1-(3-fluoro-phenyl)ethyl(4-(5-(cyclopropane-sulfonamido)-6-methylpyridin-2-yl)-1-methyl-1H-1,2,3-triazol-5-yl)carbamate]
18.1	Cc1nc(-c2nnn(CC#N)c2NC(=O)O[C@H](C)c2ccccc2Cl)ccc1NS(C)(=O)=O [Compound 96, (R)-1-(2-chlorophenyl)ethyl(1-(cyanomethyl)-4-(6-methyl-5-(methylsulfonamido)pyridin-2-yl)-1H-1,2,3-triazol-5-yl)carbamate]
235	COCc1nc(-c2nnn(C)c2NC(=O)O[C@H](C)c2cc(F)cnc2Cl)ccc1NS(C)(=O)=O [Compound 144, (R)-1-(2-Chloro-5-fluoropyridin-3-yl)ethyl (4-(6-(methoxymethyl)-5-(methylsulfonamido)pyridin-2-yl)-1-methyl-1H-1,2,3-triazol-5-yl)carbamate]
48.8	C[C@@H](OC(=O)Nc1c(-c2ccc(NS(C)(=O)=O)cn2)nnn1C)c1cc(F)cnc1F [Compound 114, (R)-1-(2,5-difluoropyridin-3-yl)ethyl (1-methyl-4-(5-(methylsulfonamido)pyridin-2-yl)-1H-1,2,3-triazol-5-yl)carbamate]
461	CC(OC(=O)Nc1c(-c2ccc(NS(C)(=O)=O)cn2)nnn1C)c1c(F)ccnc1Cl (stereo not drawn) [Compound 121, 1-(2-chloro-4-fluoropyridin-3-yl)ethyl (1-methyl-4-(5-(methylsulfonamido)pyridin-2-yl)-1H-1,2,3-triazol-5-yl)carbamate]
50.2	C[C@@H](OC(=O)Nc1c(-c2ccc(NS(C)(=O)=O)cn2)nnn1C)c1csnc1Cl [Compound 119, (R)-1-(3-chloroisothiazol-4-yl)ethyl (1-methyl-4-(5-(methylsulfonamido)pyridin-2-yl)-1H-1,2,3-triazol-5-yl)carbamate]
